In patent publication US9452980B2, “Substituted benzamides” (Hoffmann-La Roche Inc., priority 2009, dated 2016) one finds Ki data, which are given here for 14 compounds.

Where a name gives a salt, the structure may show the parent alone. Read-outs that look alike come from different tables or passages of the source.

In one assay the target is rat TAAR1 (Rattus norvegicus (Rat), UniProt Q923Y9). As to the kind of experiment: Radioligand binding assay on rat TAAR1. The following applies: read-out: Ki (μM) rat. An outline of the steps: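 Membranes from HEK293 cells stably expressing rat TAAR1, with Kd checked per batch by saturation. Competition with ³H-(S)-4-[(ethyl-phenyl-amino)-methyl]-4,5-dihydro-oxazol-2-ylamine, compounds 10 pM–10 μM in duplicate, 1 hr at 4 °C. Filtration then scintillation counting; nonspecific binding defined with 10 μM unlabeled ligand.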

The next assay addresses mouse TAAR1 (Mus musculus (Mouse), UniProt Q923Y8). Description: Radioligand binding assay on mouse TAAR1. To be noted: read-out: Ki (μM) mouse. Summed up: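 Membranes were from HEK293 cells stably expressing mouse TAAR1. Compounds from 10 pM to 10 μM, in duplicate, competed with [3H]-(S)-4-[(ethyl-phenyl-amino)-methyl]-4,5-dihydro-oxazol-2-ylamine for 1 h at 4 °C. Nonspecific binding was defined with 10 μM unlabelled ligand, and bound radioactivity was read by filtration and scintillation.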

[1] abbreviates: rat TAAR1, HEK-293 membranes, second value of cell mouse/rat.
The mark [2] stands for this setting: mouse TAAR1, HEK-293 membranes, first value of cell mouse/rat.

mouse TAAR1, sequence (Q923Y8 whole entry): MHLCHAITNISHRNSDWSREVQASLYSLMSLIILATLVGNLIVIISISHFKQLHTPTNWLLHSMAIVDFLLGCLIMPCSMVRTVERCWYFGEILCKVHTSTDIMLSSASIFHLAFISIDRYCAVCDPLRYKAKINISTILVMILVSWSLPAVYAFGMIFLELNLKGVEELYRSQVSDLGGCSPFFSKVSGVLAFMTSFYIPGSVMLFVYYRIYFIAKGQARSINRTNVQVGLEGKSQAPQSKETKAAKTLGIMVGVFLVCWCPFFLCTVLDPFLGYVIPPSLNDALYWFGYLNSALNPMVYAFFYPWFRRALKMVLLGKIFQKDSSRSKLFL
rat TAAR1, sequence (Q923Y9 whole entry): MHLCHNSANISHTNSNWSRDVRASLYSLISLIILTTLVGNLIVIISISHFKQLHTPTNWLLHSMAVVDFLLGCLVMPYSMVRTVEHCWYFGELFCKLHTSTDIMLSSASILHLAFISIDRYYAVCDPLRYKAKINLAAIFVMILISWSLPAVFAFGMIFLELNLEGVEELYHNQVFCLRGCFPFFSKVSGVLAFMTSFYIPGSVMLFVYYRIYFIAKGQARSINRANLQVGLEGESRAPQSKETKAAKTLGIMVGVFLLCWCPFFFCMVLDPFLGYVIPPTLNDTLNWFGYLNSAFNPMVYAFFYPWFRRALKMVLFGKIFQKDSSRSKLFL

Regarding `CCCc1ccc(C(=O)Nc2ccc(C3CCNC3)cc2)cc1` (racemic) [Example 53, (RS)-4-Propyl-N-(4-pyrrolidin-3-yl-phenyl)-benzamide hydrochloride], the values for the Ki at rat TAAR1 (setting [1]) and on mouse TAAR1 (setting [2]) were 0.0053 µM and 0.0016 µM, respectively.
Regarding `O=C(Nc1ccc(CCC2CCCN2)cc1)c1ccc(C(F)(F)F)cc1` (racemic) [Example 155, (RS)—N-[4-(2-Pyrrolidin-2-yl-ethyl)-phenyl]-4-trifluoromethyl-benzamide hydrochloride], the Ki was 0.0009 µM at rat TAAR1 (setting [1]) and 0.0107 µM at mouse TAAR1 (setting [2]).
The like results for `O=C(Nc1ccc(C2CCNC2)cc1)Nc1cccc2cccnc12` (racemic) [Example 81, (RS)-1-(4-Pyrrolidin-3-yl-phenyl)-3-quinolin-8-yl-urea] were, in that order, 0.0124 µM and 0.0227 µM.
The like results for `O=C(Nc1ccc(CCC2CCCN2)cc1)c1ccc(Cl)c(Cl)c1` (racemic) [Example 154, (RS)-3,4-Dichloro-N-[4-(2-pyrrolidin-2-yl-ethyl)-phenyl]-benzamide hydrochloride] were, in that order, 0.0002 µM and 0.0082 µM.
With `O=C(Nc1ccc([C@@H]2CNCCO2)cc1)c1ccc(C(F)(F)F)nc1` [Example 283, (R)—N-(4-(Morpholin-2-yl)phenyl)-6-(trifluoromethyl)nicotinamide hydrochloride], the Ki on rat TAAR1 is 0.0059 µM; on mouse TAAR1 (setting [2]), 0.006 µM.
As to `O=C(Nc1ccc([C@@H]2CNCCO2)cc1)c1cc(Cl)nc(Cl)c1` [Example 270, (R)-2,6-Dichloro-N-(4-(morpholin-2-yl)phenyl)isonicotinamide hydrochloride], the Ki at rat TAAR1 came out at 0.0045 µM; at mouse TAAR1, 0.0049 µM.
For `Cc1ccc(C(=O)Nc2ccc([C@H]3CCCNC3)cc2)cc1C` [Example 260, (R)-3,4-Dimethyl-N-(4-(piperidin-3-yl)phenyl)benzamide hydrochloride], the Ki was determined as 0.0012 µM at rat TAAR1 (setting [1]) and 0.016 µM at mouse TAAR1.
Regarding `COC(=O)c1ccc(COc2ccc(C(=O)Nc3ccc(C4CNCCO4)cc3)cc2)cc1` (racemic) [Example 211, (RS)-Methyl 4-((4-(4-(morpholin-2-yl)phenylcarbamoyl)phenoxy)methyl)benzoate hydrochloride], the figures for the Ki on rat TAAR1 (setting [1]) and at mouse TAAR1 (setting [2]) were 0.0009 µM and 0.004 µM, respectively.
For `CC(C(=O)Nc1ccc(C2CCCNC2)cc1)c1cccc(OC(F)(F)F)c1` (racemic) [Example 105, (RS)—N—((RS)-4-Piperidin-3-yl-phenyl)-2-(3-trifluoromethoxy-phenyl)-propionamide] the same measures were 0.0135 µM and 0.0296 µM.
The like results for `O=C(Nc1ccc([C@@H]2CNC[C@H]2O)cc1)c1ccc(Cl)cc1` (racemic) [Example 63, 4-Chloro-N-[4-((3RS,4SR)-4-hydroxy-pyrrolidin-3-yl)-phenyl]-benzamide hydrochloride] were, in that order, 0.174 µM and 0.0837 µM.
Regarding `O=C(Nc1ccc([C@@H]2CNCCO2)cc1)Nc1ccc(C(F)(F)F)cc1` [Example 311, (R)-1-(4-(Morpholin-2-yl)phenyl)-3-(4-(trifluoromethyl)phenyl)urea hydrochloride], the Ki on rat TAAR1 was determined as 0.0014 µM; on mouse TAAR1 (setting [2]) it was 0.0005 µM.
Take `C[C@@H]1CO[C@@H](c2ccc(NC(=O)c3cccc(Cl)c3)cc2)CN1` [Example 323, 3-Chloro-N-[4-((2S,5R)-5-methyl-morpholin-2-yl)-phenyl]-benzamide hydrochloride]: the results for the Ki on rat TAAR1 and on mouse TAAR1 were 0.0013 µM and 0.0592 µM, respectively.
For `O=C(Nc1ccc(C2CCNC2)cc1)c1ccc(-n2cccn2)nc1` (racemic) [Example 73, (RS)-6-Pyrazol-1-yl-N-(4-pyrrolidin-3-yl-phenyl)-nicotinamide hydrochloride], the Ki was found to be 0.0257 µM at rat TAAR1 (setting [1]) and 0.0056 µM at mouse TAAR1 (setting [2]).
For `CC(C(=O)Nc1ccc(C2CCNC2)cc1)c1cccc(C(=O)c2ccccc2)c1` (racemic) [Example 64, (RS)-2-(3-Benzoyl-phenyl)-N—((RS)-4-pyrrolidin-3-yl-phenyl)-propionamide] the same measures were 0.0215 µM and 0.124 µM.

By Ki is commonly meant the dissociation constant of the complex between target and ligand, obtained from inhibition or displacement.
